Values of other authors in US20090155335A1, “NON-LEACHING NON-FOULING ANTIMICROBIAL COATINGS” (priority 2007, published 2009).

Tested on: methicillin resistant and vancomycin intermediate-resistant Staphylococcus aureus
Conditions: Dacron graft soaked in dermaseptin solution, rat

## dermaseptin
  efficacy of released dermaseptin against resistant S. aureus: effective
